Read-outs that look alike come from different tables or passages of the source. A value given as a limit tells only on which side of the number the result lay.

Results on 21 compounds are retold here after patent US20230355571A1, “METHOD FOR TREATING VIRAL AND BACTERIAL INFECTION THROUGH INHALATION THERAPY” (priority 2020, published 2023).

Data set [1] concerns Human respiratory syncytial virus (hRSV). Particulars: 14 days prior to challenge and 3 days post challenge; cited from earlier work.
A further data set deals with hTRPA1 (Homo sapiens, UniProt O75762). Particulars: cited from earlier work; for inhibition of hTRPA1 activation by menthol and AITC: compound at 1 mM, menthol 1 mM, AITC 10 uM.
The conditions of data set [2]: in vivo; cited from earlier work.
Another data set deals with human MonoMac6 cells. Conditions: cells pretreated; cited from earlier work.
For a further data set, the system named is asthma patients. Conditions: human, in vivo; cited from earlier work.
The conditions of data set [3]: cited from earlier work.
In data set [4] the test system is mice. Conditions: intraperitoneal 5 and 10 mg/kg-d pretreatment; cited from earlier work.
Data set [5] relates to rats. Particulars: 50 mg/kg orally each day; smoke 1 hr/day for 56 days; cited from earlier work.
Data set [6] relates to guinea pigs. Particulars: pretreatment; cited from earlier work.
The conditions of data set [7]: 100 μM, in the presence of 2 mM N-acetyl cysteine; cited from earlier work.
A further data set relates to human lung cancer A549. Particulars: in vitro and ex vivo; cited from earlier work.
The test system of the next data set is leukemia K562 cells. Conditions: in vitro and ex vivo; cited from earlier work.
For data set [8], the system named is mice. Particulars: inhalation; cited from earlier work.
For a further data set, the system named is COPD patients. Particulars: orally 600 mg/day, cited from earlier work.
Data set [9] relates to CdCl2 treated human lung cells. Conditions: 2.5 mM; 75 μM CdCl2; cited from earlier work.
For data set [10], the system named is primary human bronchial epithelial cells. Conditions: pretreatment; cited from earlier work.
The test system of another data set is H5N1 influenza A virus. Particulars: 5 mM (816 mg/L) to 15 mM (2,448 mg/L), 24 hrs post-infection; cited from earlier work.
Data set [11] relates to rats. Conditions: oral, rat, cited from earlier work.
The target of the next data set is CB2 receptor (Homo sapiens, UniProt P34972). Conditions: unit inferred; read-out: Ki, CB2 receptor binding; cited from earlier work.
Data set [12] deals with mice. As to the kind of experiment: NOAEL, oral, mice.
Data set [13] has as its system mice. Particulars: oral (species not given; mice); cited from earlier work.
The subject of data set [14] is rats. In words: NOAEL, oral, rats. The data set is classed as in vivo. Here is the method:
The NOAEL value for Polysorbate 20 taken orally in rats is greater than 2,500 mg/kg (body weight), the highest dose tested.

The next data set has as its target TRAPA1 (Homo sapiens, UniProt O75762). Conditions: read-out: IC50, TRPA1 antagonist; cited from earlier work.
In a further data set the test system is HEK293 cell. Conditions: cited from earlier work.
For a further data set, the target named is TRPV4 (Homo sapiens, UniProt Q9HBA0). Particulars: cited from earlier work.
The next data set concerns the target TRPV1 (Homo sapiens, UniProt Q8NER1). Conditions: cited from earlier work.
For data set [15], the system named is mice. Particulars: cited from earlier work.
For data set [16], the system named is guinea pigs. Conditions: cited from earlier work.
The mark [17] stands for this setting: 2 mL/dose 4 times per day of Table A2 composition.
[18] abbreviates: Table A2 Preferred Base Viral Nebulizer Liquid, single 2 mL dose, 25 mL ELF, 100 percent retained.
Setting [19] is: Table A3 Preferred Viral Respiratory Challenged Nebulizer Liquid, single 2 mL dose, 25 mL ELF, 100 percent retained.
[20] abbreviates: Table A4 Preferred Bacterial Pneumonia Nebulizer Liquid, single 2 mL dose, 25 mL ELF, 100 percent retained.
Where [21] appears, read: Table A6 Preferred Base Nebulizer Liquid with Amino Acids, single 2 mL dose, 25 mL ELF, 100 percent retained.

Chain of hTRPA1 (O75762 whole entry): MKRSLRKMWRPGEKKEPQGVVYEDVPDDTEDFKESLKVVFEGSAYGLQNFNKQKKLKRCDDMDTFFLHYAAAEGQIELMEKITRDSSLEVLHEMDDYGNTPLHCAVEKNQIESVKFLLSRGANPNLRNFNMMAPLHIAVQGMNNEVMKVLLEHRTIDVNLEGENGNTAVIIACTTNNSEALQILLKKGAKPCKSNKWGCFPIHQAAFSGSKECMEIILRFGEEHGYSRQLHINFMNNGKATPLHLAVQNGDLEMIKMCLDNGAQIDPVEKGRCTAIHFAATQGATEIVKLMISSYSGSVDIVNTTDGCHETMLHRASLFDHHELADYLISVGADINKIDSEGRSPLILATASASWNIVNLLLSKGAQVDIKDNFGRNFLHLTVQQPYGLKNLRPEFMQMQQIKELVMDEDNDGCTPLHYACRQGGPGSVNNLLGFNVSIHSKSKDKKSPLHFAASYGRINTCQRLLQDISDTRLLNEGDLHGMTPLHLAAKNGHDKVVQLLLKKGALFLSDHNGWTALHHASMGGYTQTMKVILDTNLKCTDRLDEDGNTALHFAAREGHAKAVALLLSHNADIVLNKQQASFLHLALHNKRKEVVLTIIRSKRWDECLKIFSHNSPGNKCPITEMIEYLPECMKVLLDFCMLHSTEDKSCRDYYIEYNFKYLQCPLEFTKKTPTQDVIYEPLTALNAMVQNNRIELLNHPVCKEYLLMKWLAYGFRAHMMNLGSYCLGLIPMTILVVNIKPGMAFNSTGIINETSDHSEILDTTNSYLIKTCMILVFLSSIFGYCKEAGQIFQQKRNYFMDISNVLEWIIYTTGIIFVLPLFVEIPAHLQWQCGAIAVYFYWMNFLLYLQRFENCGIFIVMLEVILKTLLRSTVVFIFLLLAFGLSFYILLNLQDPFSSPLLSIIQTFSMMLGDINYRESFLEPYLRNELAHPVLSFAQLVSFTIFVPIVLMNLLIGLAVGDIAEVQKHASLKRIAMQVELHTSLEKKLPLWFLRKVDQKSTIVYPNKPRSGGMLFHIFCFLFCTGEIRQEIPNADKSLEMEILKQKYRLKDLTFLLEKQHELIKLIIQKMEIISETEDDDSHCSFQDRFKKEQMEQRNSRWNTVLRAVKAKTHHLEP
Chain of TRPV1 (Q8NER1 whole entry, species assumed): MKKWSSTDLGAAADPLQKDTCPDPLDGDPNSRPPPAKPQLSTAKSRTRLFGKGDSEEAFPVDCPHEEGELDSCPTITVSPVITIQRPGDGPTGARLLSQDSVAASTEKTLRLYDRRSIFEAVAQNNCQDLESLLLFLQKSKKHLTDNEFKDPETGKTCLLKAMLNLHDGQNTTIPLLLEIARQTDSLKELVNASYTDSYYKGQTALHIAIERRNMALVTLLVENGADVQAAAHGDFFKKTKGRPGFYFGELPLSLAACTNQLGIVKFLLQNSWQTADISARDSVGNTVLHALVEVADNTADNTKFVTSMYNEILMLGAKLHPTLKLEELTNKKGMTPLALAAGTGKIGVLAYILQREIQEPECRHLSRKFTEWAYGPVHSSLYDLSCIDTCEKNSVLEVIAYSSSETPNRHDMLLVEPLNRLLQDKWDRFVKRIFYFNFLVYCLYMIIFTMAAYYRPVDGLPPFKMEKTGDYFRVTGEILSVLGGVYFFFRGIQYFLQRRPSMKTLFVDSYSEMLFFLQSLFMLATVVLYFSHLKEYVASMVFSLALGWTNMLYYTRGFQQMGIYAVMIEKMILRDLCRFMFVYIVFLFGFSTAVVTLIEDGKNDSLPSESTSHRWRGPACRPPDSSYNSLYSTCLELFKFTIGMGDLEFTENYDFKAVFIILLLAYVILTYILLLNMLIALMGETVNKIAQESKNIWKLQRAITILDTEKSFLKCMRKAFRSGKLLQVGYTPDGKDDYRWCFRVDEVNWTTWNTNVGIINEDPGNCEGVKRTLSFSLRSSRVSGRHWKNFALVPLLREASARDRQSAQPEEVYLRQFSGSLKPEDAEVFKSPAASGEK
Chain of TRPV4 (Q9HBA0 whole entry, species assumed): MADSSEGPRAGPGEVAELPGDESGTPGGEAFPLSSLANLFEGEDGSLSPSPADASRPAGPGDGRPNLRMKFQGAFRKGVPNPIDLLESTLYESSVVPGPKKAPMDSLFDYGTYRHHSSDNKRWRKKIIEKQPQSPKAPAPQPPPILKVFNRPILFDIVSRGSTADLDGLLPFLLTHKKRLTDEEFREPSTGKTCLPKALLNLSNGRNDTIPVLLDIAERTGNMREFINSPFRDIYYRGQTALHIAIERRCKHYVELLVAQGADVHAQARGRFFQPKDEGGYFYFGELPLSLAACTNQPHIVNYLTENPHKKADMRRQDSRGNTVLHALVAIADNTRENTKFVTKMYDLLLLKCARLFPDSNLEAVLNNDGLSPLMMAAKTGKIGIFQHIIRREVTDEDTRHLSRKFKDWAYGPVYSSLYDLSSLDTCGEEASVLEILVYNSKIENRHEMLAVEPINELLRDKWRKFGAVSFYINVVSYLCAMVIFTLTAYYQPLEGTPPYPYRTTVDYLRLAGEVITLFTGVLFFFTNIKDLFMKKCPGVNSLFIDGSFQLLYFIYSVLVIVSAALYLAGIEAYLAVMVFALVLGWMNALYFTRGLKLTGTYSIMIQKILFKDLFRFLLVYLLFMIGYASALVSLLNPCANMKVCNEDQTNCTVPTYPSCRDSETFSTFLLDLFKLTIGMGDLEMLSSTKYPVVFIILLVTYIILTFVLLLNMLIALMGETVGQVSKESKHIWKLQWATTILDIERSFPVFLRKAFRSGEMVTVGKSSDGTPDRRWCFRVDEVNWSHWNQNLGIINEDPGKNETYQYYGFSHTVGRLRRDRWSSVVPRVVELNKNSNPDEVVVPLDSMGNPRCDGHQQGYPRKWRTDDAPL
Chain of TRAPA1 (O75762 whole entry): as the sequence (O75762 whole entry) above
Chain of CB2 receptor (P34972 whole entry): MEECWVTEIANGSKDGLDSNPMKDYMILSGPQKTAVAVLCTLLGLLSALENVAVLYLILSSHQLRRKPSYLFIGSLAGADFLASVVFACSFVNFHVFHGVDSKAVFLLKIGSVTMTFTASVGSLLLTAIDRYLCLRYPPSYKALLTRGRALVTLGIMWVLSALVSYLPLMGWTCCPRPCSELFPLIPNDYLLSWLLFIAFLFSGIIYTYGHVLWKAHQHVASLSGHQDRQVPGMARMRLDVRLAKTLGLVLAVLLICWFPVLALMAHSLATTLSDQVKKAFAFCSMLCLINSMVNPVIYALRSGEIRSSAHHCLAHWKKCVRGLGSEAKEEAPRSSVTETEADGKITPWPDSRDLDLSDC

Take `OC[C@@H](O)[C@H](O)[C@@H](O)CO` [xylitol]: the “lung virus titers versus phosphate-buffered saline controls” value in [1] is on record as “significantly greater reductions”.
Regarding `CC12CCC(CC1=O)C2(C)C` (stereo not drawn) [camphor], the “activation of hTRPA1” value on hTRPA1 is listed as “did not activate”.
As for `NCCS(=O)(=O)O` [Taurine], where the note is “human”, the “Concentration in Epithelial Lining Fluid” value was determined as 2670 µg/mL.
Turning to `CC12CCC(C1)C(C)(C)C2O` (stereo not drawn) [fenchyl alcohol], at hTRPA1, the “activation of hTRPA1” value was “did not activate”; the “inhibition of hTRPA1 activation by menthol and AITC” value (“inhibition of hTRPA1 activation” below) is listed as “completely inhibited”.
For the compound `CC1(C)[C@@H]2CC[C@@]1(C)[C@](C)(O)C2` [2-methylosoborneol, 2-methylisoborneol], the IC50 on hTRPA1 (TRPA1 activated by 20 uM AITC, read-out: IC-50 concentration, inactivation of TRPA1 activation) is 120 µM. Also, at hTRPA1, the “activation of hTRPA1” value is listed as “did not activate”; the “inhibition of hTRPA1 activation” value is “completely inhibited”.
Take `N[C@@H](CCC(=O)N[C@@H](CS)C(=O)NCC(=O)O)C(=O)O` [glutathione, γ-L-glutamyl-L-cysteinyl-glycine]: in data set [2], the “adverse effects of aerosol administration” value is recorded as “no adverse effects” and the “period epithelial lung fluid glutathione remained elevated” value is 2 h. In addition, the “estimated concentration in the epithelial lining fluid of the lungs” value (human) is 889 µg/mL. The “cigarette smoke extract-mediated IL-8 release” value in the data set on human MonoMac6 cells is recorded as “significantly inhibited”. In addition, in the data set with asthma patients, the “change from baseline FEV1” value was −19% and the “change from baseline total pulmonary resistance” value is listed as “+61%”. Further, the LD50 (as a rule, the dose expected to kill half of the subjects tested) in data set [3] (in vivo) is given as 5000 mg/kg. The 50% lethal dose (LD50) in [3] (oral, mouse) is given as 5,000 mg/kg.
In the case of `COc1ccc2cc3[n+](cc2c1OC)CCc1cc2c(cc1-3)OCO2` [berberine], the “cigarette smoke-induced airway inflammation and mucus production” value in the data set on mice [4] is listed as “inhibited”.
Take `O=C1CC2CC[C@H]1C2` [norcamphor]: on hTRPA1, the “activation of hTRPA1” value is “did not activate”.
For the compound epigallocatechin-3-gallate, the “cigarette smoke-induced oxidative stress and neutrophilic inflammation, airway mucus production and collagen deposition” value in the data set with rats [5] is given as “ameliorated”. Also, in the data set with guinea pigs [6], the “bronchoalveolar lavage fluid IL-8” value is recorded as “significantly reduced” and the “bronchoalveolar lavage fluid LTB4” value is given as “significantly reduced”. Moreover, in data set [7], the “increase of cellular uptake” value is listed as 2.5 times.
Take `CCNC(=O)CC[C@H](N)C(=O)O` [theanine, L-theanine]: the “Concentration in Epithelial Lining Fluid” value (human) is 2670 µg/mL. Besides, the “growth of A549 cells” value in the data set on human lung cancer A549 is on record as “significantly suppressed”. Also, the “growth of K562 cells” value with leukemia K562 cells is reported as “significantly suppressed”.
In the case of `CC(=O)N[C@@H](CS)C(=O)O` [N-acetyl cysteine], the “lung fibrosis induced by bleomycin” value in the data set on mice [8] is recorded as “inhibited”. In addition, the “sputum eosinophil cationic protein concentrations” value in the data set on COPD patients (COPD patients) was “reduced”. Also, in the data set with COPD patients, the “lung lavage glutathione levels” value is listed as “increased”. The “superoxide production by alveolar macrophages” value in the data set with COPD patients is given as “reduced”. For the same compound, the “estimated concentration in the epithelial lining fluid of the lungs” value (human) was 889 µg/mL. For the same compound, in [9], the “morphology and viability of CdCl2 treated human lung cells” value was “restored the morphology and viability”. The “Ca^2+ influx induced by cigarette smoke extract” value in data set [10] is “prevented”. Also, the LD50 in data set [3] (in vivo) is listed as 5050 mg/kg; in [3] (oral, rat) it was 5,050 mg/kg. Moreover, the “H5N1-induced cytopathogenic effects, virus-induced apoptosis, and viral yields” value with H5N1 influenza A virus is on record as “reduces”.
Take `C=C1CC/C=C(\C)CC[C@@H]2[C@@H]1CC2(C)C` [B-Caryophyllene]: the no observed adverse effect level (NOAEL) (commonly the highest tested level that showed no adverse finding) in the data set on rats [11] (90 d) is given as above 700 mg/kg. In data set [3] (oral, rat), the “LD50” value is given as >5,000 mg/kg.
As to `CCCCC/C=C\C/C=C\C/C=C\C/C=C\CCCC(=O)OC(CO)CO` [Table 2-AG, 2-arachidonoyl-glycerol, reference compound], on CB2 receptor, the Ki – broadly, the equilibrium dissociation constant of an inhibitor or competing ligand from its target – is 0.65 µM.
Take `CC1(C)C2CCC1(C)C(O)C2` (stereo not drawn) [borneol]: at hTRPA1, the “activation of hTRPA1” value is recorded as “did not activate”; the “inhibition of hTRPA1 activation” value is on record as “completely inhibited”.
Consider `C/C1=C2/[N-][C@H]([C@H](CC(N)=O)[C@@]2(C)CCC(=O)NC[C@@H](C)OP(=O)([O-])O[C@H]2[C@@H](O)[C@@H](n3cnc4cc(C)c(C)cc43)O[C@@H]2CO)[C@]2(C)N=C(/C(C)=C3N=C(/C=C4N=C1[C@@H](CCC(N)=O)C\4(C)C)[C@@H](CCC(N)=O)[C@]\3(C)CC(N)=O)[C@@H](CCC(N)=O)[C@]2(C)CC(N)=O.[CH3-].[Co+3]` [methylcobalamin], for which the “factor NOAEL over daily inhaled dose” value in the data set on mice [12] (setting [17]) is recorded as 596,254 times. Also, the “NOAEL for a 62 kg adult human” value in the data set with mice [12] (extrapolated from mouse NOAEL) is recorded as 31,000 mg per day. Moreover, the “Concentration in Epithelial Lining Fluid” value is, setting by setting: under setting [18], 0.5 µg/mL; under setting [19], 1.1 µg/mL; under setting [20], 1.1 µg/mL; under setting [21], 1.1 µg/mL. For the same compound, in the data set with mice [13], the NOAEL is recorded as 500 mg/kg.
`CCCCCCCCCCCC(=O)OCCOCCOCCOCCOCCOCCOCCOCCOCCOCCOCCOCCOCCOCCOCCOCCOCCOCCOCCOCCOCC(OCCOCCOCCOCCOCCOCCOCCOCCOCCOCCOCCOCCOCCOCCOCCOCCOCCOCCOCCOCCO)C1OCC(OCCOCCOCCOCCOCCOCCOCCOCCOCCOCCOCCOCCOCCOCCOCCOCCOCCOCCOCCOCCO)C1OCCOCCOCCOCCOCCOCCOCCOCCOCCOCCOCCOCCOCCOCCOCCOCCOCCOCCOCCOCCO` (stereo not drawn) [Polysorbate 20]: in the data set on rats [11], the NOAEL is 2,500 mg/kg. In addition, the “Concentration in Epithelial Lining Fluid” value amounted to 530 µg/mL under setting [18]; 1070 µg/mL under setting [19]; 1330 µg/mL under setting [20]; 1330 µg/mL under setting [21]; 1870 µg/mL (human). Moreover, the “factor NOAEL over daily inhaled dose” value with rats [14] (setting [17]) was 2,980 times. Moreover, the “NOAEL for a 62 kg adult human” value in the data set with rats [14] (extrapolated from rat NOAEL) is 155,000 mg per day. The LD50 in data set [3] (in vivo) is given as 3,850 mg/kg.
`COc1cc(O)cc(O)c1C(=O)/C=C/c1ccccc1` [cardamonin]: the IC50 on TRAPA1 is 0.454 µM. In addition, the HEK293 cell viability result in the data set on HEK293 cell is recorded as “did not significantly reduce”. In addition, the “effect on TRPV4” value on TRPV4 is listed as “not affecting”. The “effect on TRPV1” value at TRPV1 was “not affecting”.
Turning to `Oc1ccc(C=Cc2cc(O)cc(O)c2)cc1` [Resveratrol], the “cigarette smoke-induced lung inflammation” value in the data set with mice [15] was “decreased”.
For the compound `Cn1c(=O)c2c(CC(=O)Nc3nc(-c4ccc(F)c(C(F)(F)F)c4F)cs3)csc2n(C)c1=O` [GRC 17536], the “citric acid induced tussive response” value with guinea pigs [16] is reported as “inhibited”.
On to `CC1=CC(=O)C(C(C)C)=CC1=O` [thymoquinone], for which, in the data set with guinea pigs [6], the “bronchoalveolar lavage fluid IL-8” value is recorded as “significantly decreased” and the “bronchoalveolar lavage fluid LTB4” value was “did not significantly change”.
For `CC(C)c1ccc(NC(=O)Cn2cnc3c2c(=O)n(C)c(=O)n3C)cc1` [HC-030031], the “tussive response induced by TRPA1 agonists (AITC, acrolein, crotonaldehyde, cinnamaldehyde)” value in the data set with guinea pigs [16] was “attenuated”. In addition, the “Ca^2+ influx induced by cigarette smoke extract” value in data set [10] is “similar”.
